Measurements as given in paper PMC8954547, “Nonpeptidic Z360-Analogs Tagged with Trivalent Radiometals as Anti-CCK2R Cancer Theranostic Agents: A Preclinical Study” (Pharmaceutics, 2022).

System: SCID mice bearing twin HEK293-CCK2i4svR and wtHEK293 tumors
Experiment: Biodistribution in SCID mice bearing twin HEK293-CCK2i4svR and wtHEK293 xenografts
Type: in vivo
Outline: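 Uptake is expressed as %IA/g (mean ± SD, n = 4) from gamma counting of blood, organs and tumours collected at set times: 1, 4 and 24 h pi for ^67Ga, 4 and 24 h for ^111In (±gelofusine), 4–96 h for ^177Lu. Radioligands were given iv at 7–40 pmol to SCID mice bearing twin CCK2i4svR-transfected and wild-type HEK293 xenografts.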

Structure (SMILES): CC(C)(C)C(=O)CN1C(=O)[C@H](NC(=O)Nc2cccc(C(=O)NCCOCCOCCOCCNC(=O)[C@H](CCC(=O)O)NC(=O)CCC(C(=O)O)N3CCN(CC(=O)[O-])CCN(CC(=O)[O-])CCN(CC(=O)[O-])CC3)c2)CN(C2CCCCC2)c2ccccc21.[177Lu+3] (stereo in doubt) [[^177Lu]Lu-GAS3]
- Tumor to kidney ratio (96 pi): 13.8
- Biodistribution, Blood (4 h pi): 3.19 ± 0.44 %IA/g
- Biodistribution, CCK2i4svR(+) Tumor (4 h pi): 20.88 ± 1.20 %IA/g
- Biodistribution, CCK2i4svR(-) Tumor (4 h pi): 1.14 ± 0.50 %IA/g
- Biodistribution, Femur (4 h pi): 0.60 ± 0.07 %IA/g
- Biodistribution, Heart (4 h pi): 0.94 ± 0.21 %IA/g
- Biodistribution, Intestines (4 h pi): 1.85 ± 0.18 %IA/g
- Biodistribution, Kidneys (4 h pi): 8.86 ± 0.67 %IA/g
- Biodistribution, Liver (4 h pi): 2.73 ± 0.31 %IA/g
- Biodistribution, Lungs (4 h pi): 1.94 ± 0.21 %IA/g
- Biodistribution, Muscle (4 h pi): 0.31 ± 0.04 %IA/g
- Biodistribution, Pancreas (4 h pi): 1.00 ± 0.13 %IA/g
- Biodistribution, Spleen (4 h pi): 1.19 ± 0.12 %IA/g
- Biodistribution, Stomach (4 h pi): 0.64 ± 0.07 %IA/g
- Tumor to kidney ratio (4 h pi): 2.4
- Biodistribution, Blood (24 h pi): 0.07 ± 0.01 %IA/g
- Biodistribution, CCK2i4svR(+) Tumor (24 h pi): 5.38 ± 0.77 %IA/g
- Biodistribution, CCK2i4svR(-) Tumor (24 h pi): 0.37 ± 0.12 %IA/g
- Biodistribution, Femur (24 h pi): 0.11 ± 0.02 %IA/g
- Biodistribution, Heart (24 h pi): 0.08 ± 0.02 %IA/g
- Biodistribution, Intestines (24 h pi): 0.17 ± 0.04 %IA/g
- Biodistribution, Kidneys (24 h pi): 1.42 ± 0.29 %IA/g
- Biodistribution, Liver (24 h pi): 0.51 ± 0.05 %IA/g
- Biodistribution, Lungs (24 h pi): 0.26 ± 0.02 %IA/g
- Biodistribution, Muscle (24 h pi): 0.03 ± 0.01 %IA/g
- Biodistribution, Pancreas (24 h pi): 0.07 ± 0.01 %IA/g
- Biodistribution, Spleen (24 h pi): 0.45 ± 0.05 %IA/g
- Biodistribution, Stomach (24 h pi): 0.11 ± 0.01 %IA/g
- Tumor to kidney ratio (24 h pi): 3.8
- Biodistribution, Blood (48 h pi): 0.05 ± 0.01 %IA/g
- Biodistribution, CCK2i4svR(+) Tumor (48 h pi): 3.39 ± 0.23 %IA/g
- Biodistribution, CCK2i4svR(-) Tumor (48 h pi): 0.25 ± 0.14 %IA/g
- Biodistribution, Femur (48 h pi): 0.14 ± 0.04 %IA/g
- Biodistribution, Heart (48 h pi): 0.08 ± 0.01 %IA/g
- Biodistribution, Intestines (48 h pi): 0.07 ± 0.01 %IA/g
- Biodistribution, Kidneys (48 h pi): 0.47 ± 0.07 %IA/g
- Biodistribution, Liver (48 h pi): 0.35 ± 0.09 %IA/g
- Biodistribution, Lungs (48 h pi): 0.18 ± 0.03 %IA/g
- Biodistribution, Muscle (48 h pi): 0.04 ± 0.01 %IA/g
- Biodistribution, Pancreas (48 h pi): 0.08 ± 0.04 %IA/g
- Biodistribution, Spleen (48 h pi): 0.43 ± 0.10 %IA/g
- Biodistribution, Stomach (48 h pi): 0.08 ± 0.01 %IA/g
- Biodistribution, Blood (72 h pi): 0.04 ± 0.00 %IA/g
- Biodistribution, CCK2i4svR(+) Tumor (72 h pi): 1.99 ± 0.31 %IA/g
- Biodistribution, CCK2i4svR(-) Tumor (72 h pi): 0.13 ± 0.03 %IA/g
- Biodistribution, Femur (72 h pi): 0.06 ± 0.00 %IA/g
- Biodistribution, Heart (72 h pi): 0.04 ± 0.01 %IA/g
- Biodistribution, Intestines (72 h pi): 0.04 ± 0.01 %IA/g
- Biodistribution, Kidneys (72 h pi): 0.17 ± 0.04 %IA/g
- Biodistribution, Liver (72 h pi): 0.32 ± 0.02 %IA/g
- Biodistribution, Lungs (72 h pi): 0.15 ± 0.01 %IA/g
- Biodistribution, Muscle (72 h pi): 0.03 ± 0.01 %IA/g
- Biodistribution, Pancreas (72 h pi): 0.03 ± 0.01 %IA/g
- Biodistribution, Spleen (72 h pi): 0.44 ± 0.07 %IA/g
- Biodistribution, Stomach (72 h pi): 0.06 ± 0.02 %IA/g
- Biodistribution, Blood (96 h pi): 0.04 ± 0.00 %IA/g
- Biodistribution, CCK2i4svR(+) Tumor (96 h pi): 1.52 ± 0.43 %IA/g
- Biodistribution, CCK2i4svR(-) Tumor (96 h pi): 0.00 ± 0.04 %IA/g
- Biodistribution, Femur (96 h pi): 0.06 ± 0.00 %IA/g
- Biodistribution, Heart (96 h pi): 0.03 ± 0.01 %IA/g
- Biodistribution, Intestines (96 h pi): 0.03 ± 0.01 %IA/g
- Biodistribution, Kidneys (96 h pi): 0.11 ± 0.03 %IA/g
- Biodistribution, Liver (96 h pi): 0.25 ± 0.02 %IA/g
- Biodistribution, Lungs (96 h pi): 0.14 ± 0.01 %IA/g
- Biodistribution, Muscle (96 h pi): 0.01 ± 0.00 %IA/g
- Biodistribution, Pancreas (96 h pi): 0.02 ± 0.00 %IA/g
- Biodistribution, Spleen (96 h pi): 0.39 ± 0.02 %IA/g
- Biodistribution, Stomach (96 h pi): 0.04 ± 0.00 %IA/g
- Background clearance / excretion route (mouse, in vivo): rapid background clearance predominantly via the kidneys
